pIC50: −log10 of the molar value.
What follows are molecules tested against Neuronal acetylcholine receptor subunit alpha-7 (Homo sapiens, UniProt P36544) (assay: Agonist activity at alpha7 nAChR (unknown origin)).
Chain of Neuronal acetylcholine receptor subunit alpha-7 (P36544 whole entry): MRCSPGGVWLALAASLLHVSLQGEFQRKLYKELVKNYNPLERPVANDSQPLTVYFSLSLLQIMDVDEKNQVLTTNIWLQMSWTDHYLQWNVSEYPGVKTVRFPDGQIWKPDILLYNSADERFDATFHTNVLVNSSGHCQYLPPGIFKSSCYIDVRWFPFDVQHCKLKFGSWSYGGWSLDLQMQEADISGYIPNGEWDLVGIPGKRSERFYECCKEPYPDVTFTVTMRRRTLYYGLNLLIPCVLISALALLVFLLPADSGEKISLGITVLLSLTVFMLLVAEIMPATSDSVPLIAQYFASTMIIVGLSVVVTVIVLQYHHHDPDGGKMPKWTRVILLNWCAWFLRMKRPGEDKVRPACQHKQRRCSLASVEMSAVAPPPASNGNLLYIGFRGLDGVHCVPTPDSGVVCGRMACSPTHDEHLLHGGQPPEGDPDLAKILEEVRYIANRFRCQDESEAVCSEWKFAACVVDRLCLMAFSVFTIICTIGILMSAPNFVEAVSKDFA

Compound | pIC50
COc1ccc(NC(=O)N2CCNC[C@@H]2COc2cccnc2)cc1 | 7.72
COc1ccc(OC(=O)N2CCNCC2CCc2cccnc2)cc1 (stereo not given) | < 5.30
COc1ccc(NC(=O)N2CCNCC2COc2cccnc2)cc1 (stereo not given) | 7.96

Now from value to molecule:

pIC50 | Compound
8.22 | c1cncc(OC[C@H]2CNCCN2c2nc3ncccc3o2)c1
< 5.30 | COc1ccc(NC(=O)N2CCNCC2CCc2cccnc2)cc1 (stereo not given)

Source: ChEMBL document CHEMBL3808359, “Conformational analysis of 2-substituted piperazines” (Bioorg Med Chem Lett, 2016)
